Experimental data published in patent publication US5049550A, “Diadenosine 5', 5'"-p^1, p^4,-tetraphosphate analogs as antithrombotic agents” (Worcester Foundation for Experimental Biology, priority 1988, dated 1991).
“Also recorded” adds a separate entry of the source.

How the values were obtained:
[1] = tested on: ADP induced platelet aggregation; details: in vitro; even when aggregation has progressed to 60% completion; cited from earlier work
[2] = Decay of AP4 A / ATP in incubated rabbit blood collected at the end of AP4 A infusion (ex vivo); type: in vitro ADME; details: for level of AP4 A as compared to baseline: 37° C.
Procedure: (§1) Blood samples were collected from the carotid artery through a catheter before and after (0, 10, 20, 40, and 60 minutes) infusion of AP4 A. Blood was anticoagulated by mixing with 0.15 volume of acid-citrate-dextrose solution. An aliquot of blood collected at the end of AP4 A infusion (to sample) was incubated at 37° C. and sampled at 10, 20, 40, and 60 minutes to evaluate the in vitro decay of AP4 A. Blood samples of […] 3% perchloric acid and kept at 0° C. for 30 minutes with intermittent vortexing. The acid soluble fraction was recovered by centrifugation at 1000 g for 10 minutes and neutralized by 5M K2 CO3. It was then kept at -80° C. until assay of the nucleotides. The AP4 A assay was performed by coupling the phosphodiesterase and luciferase reactions in a luminometer (Model 6100 Picolite, Packard, Downers Grove, Ill.). The detailed method of AP4 A and ATP assays has been reported elsewhere (Kim, B. K., Chao, F. C., Leavitt, R., Fauci, A. S., Meyers, K. M. and Zamecnik, P. C. Blood, 66:735-737, 1985).
(§2) The disappearance of infused AP4 A in the circulation and in incubated blood was studied in 2 rabbits. Mean values of hemoglobin, hematocrit and platelet count were 10.1 g/dl, 30.8% and 362,000/ul respectively. The blood content of AP4 A in the rabbits was 51 nmol/1 blood prior to infusion. […] Kim, B. K. et al., Blood, 66:735-737 (1985); Flodgaard, H., Zamecnik, P. C. Meyers, K. and Klenow, H., Thrombosis Research, 37:345-351 (1986). […] A very rapid disappearance of infused AP4 A was observed, with complete clearance within 10 minutes after infusion. When blood samples obtained at the end of AP4 A infusion were incubated at 37° C., only 15-fold and 4-fold levels of AP4 A, as compared to baseline could be detected after 10 minutes and 20 minutes respectively.

[3] = tested on: Intracarotid Artery Thrombosis; assay: Intracarotid cannula arterial thrombosis model in rabbits; type: in vivo, rabbit
Procedure: Gurewich, V. and Lipinski, B. Thrombosis Research, 9:101 (1976); Louie, S. and Gurewich, V. Thrombosis Research, 30:323-335 (1983).
(§3) Male, New Zealand white rabbits, weighing 2-2.5 kg., were anesthetized with ketamine hydrochloride (100 mg/kg intramuscularly). AP4 A (Boehringer (100 Mannheim Biochemicals, Indianapolis, Ind.), or saline control was infused via a marginal ear vein. A segment of the left common carotid artery was isolated by vascular clamps. A 1 cm. length of polyethylene tubing (PE-90, Clay Adams, Parsippany, N.Y.) was inserted, secured by silk ligatures, and the blood flow re-established by removing the clamps. Blood was sampled from the right carotid artery for assays of AP4 A and ATP, and for platelet aggregation studies.
(§4) After preliminary trials, a standard AP4 A infusion protocol was established as follows: A dose of AP4 A at 50 mg/kg was reconstituted in 10 ml of normal saline and infused by pump at a uniform rate over two hours. Control rabbits received 10 ml of saline alone. The intracarotid cannula was inserted, and the re-establishment of blood flow timed at 15 minutes into the infusion. Upon the completion of infusion at 2 hours, the intracarotid tubing was removed, and its contents flushed out into a petri dish. The presence of a clot or of liquid blood contents was noted.
Twenty-five rabbits each were assigned to the experimental group that received AP4 A (50 mg/kg), and the control group that received normal saline alone. The incidence of clot formation in the intracarotid cannula in the two groups was compared by the Chi-Square test.
Initially, twelve rabbits received a constant infusion of E10 over a 2 hour period at a dosage of 100 mg in 10 ml. These intravenous infusions were performed as described above for AP4 A.
In addition, 30 mg of E10 in 3 ml saline was administered as a single injection over a one minute time span at the beginning of the cannulation period.

[4] = tested on: rabbit platelet aggregation by ADP; assay: ADP-induced aggregation of rabbit platelets; type: cell-based
Procedure: (§5) Rabbit carotid arterial blood was collected in 3.8% sodium citrate (9 volumes blood to 1 volume citrate). Platelet rich plasma (PRP) and platelet poor plasma (PPP) were prepared by centrifugation at 150 g and 1,000 g for 10 minutes respectively. Aggregation studies were performed in a Chrono-Log (Havertown, Pa.) aggregometer with ADP or collagen as aggregating agents. ADP (Sigma Chemical Co.) was used in a final concentration of 2×10^-5 M. Calf skin collagen (Sigma Chemical Co.) was used in a final concentration of 200 ug/ml.
The effect of AP4 A on rabbit platelet aggregation by ADP and collagen was tested. […] The anti-aggregatory effect of AP4 A was detected at a concentration of 2×10^-4 M (tenfold that of ADP) and increased in a dose-response pattern with increasing concentrations (FIG. 1).

[5] = Assay of blood AP4 A and ATP before and after AP4 A infusion in rabbits (in vivo); design: species or system rabbit
Procedure: as §3, §4, §1, §2

[6] = tested on: collagen-induced aggregation of platelets; assay: Collagen-induced aggregation of platelets recovered from AP4 A-infused rabbits; type: in vivo, rabbit; details: 50 mg per kg over 2 hours; collagen 200 ug/ml (FIG. 4)
Procedure: as §4, §5

[7] = tested on: aggregation of platelets induced by ADP; assay: ADP-induced aggregation of platelets recovered from AP4 A-infused rabbits; type: in vivo, rabbit
Procedure: as §4, §5

[8] = AP4 A 50 mg/kg infused over 2 hours, 25 rabbits
[9] = in vivo, before infusion of AP4 A

Compound: Nc1ncnc2c1ncn2[C@@H]1O[C@H](COP(=O)(O)OP(=O)(O)OP(=O)(O)OP(=O)(O)OC[C@H]2O[C@@H](n3cnc4c(N)ncnc43)[C@H](O)[C@@H]2O)[C@@H](O)[C@H]1O [AP4 A, diadenosine 5',5'"-p^1,p^4 -tetraphosphate]
- effect on ADP induced platelet aggregation [1]: competitively inhibits ADP induced platelet aggregation, causing an immediate dispersion of aggregated platelets
- level of AP4 A as compared to baseline ([2]; ex vivo, after 10 minutes): 15 fold
- level of AP4 A as compared to baseline ([2]; ex vivo, after 20 minutes): 4 fold
- ATP, umol/l blood ([2]; ex vivo, 10 min at 37° C.): 570.1 umol/l blood
- ATP, umol/l blood ([2]; ex vivo, 20 min at 37° C.): 559.3 umol/l blood
- ATP, umol/l blood ([2]; ex vivo, 40 min at 37° C.): 551.5 umol/l blood
- ATP, umol/l blood ([2]; ex vivo, 60 min at 37° C.): 572.0 umol/l blood
- ex vivo decay compared to in vivo clearance ([2]; rabbit blood): significantly longer; also recorded: slightly longer
- concentration at 10 min ([2]; rabbit, blood, iv, 50 mg/kg, ex vivo, 10 min at 37° C., read-out: AP4 A, umol/l blood): 0.799 µmol/L
- concentration at 20 min ([2]; rabbit, blood, iv, 50 mg/kg, ex vivo, 20 min at 37° C., read-out: AP4 A, umol/l blood): 0.21 µmol/L
- concentration at 40 min ([2]; rabbit, blood, iv, 50 mg/kg, ex vivo, 40 min at 37° C., read-out: AP4 A, umol/l blood): 0.041 µmol/L
- concentration at 1 h ([2]; rabbit, blood, iv, 50 mg/kg, ex vivo, 60 min at 37° C., read-out: AP4 A, umol/l blood): 0.037 µmol/L
- % CLOTS (incidence of thrombosis) [3, 8]: 56%
- Clot Absent (rabbits) [3, 8]: 11
- Clot Present (rabbits) [3, 8]: 14
- difference in dimension and weight of clots versus controls ([3]; AP4 A 50 mg/kg over 2 hours): no significant difference
- minimal effective concentration ([4]; Oryctolagus cuniculus, Platelet, ADP 2×10^-5 M (tenfold that of ADP), read-out: concentration at which the anti-aggregatory effect was detected): 200 µM
- effect of addition during ADP aggregation ([4]; added during aggregation, ADP 2×10^-5 M): blunted the secondary wave response to ADP and caused the dispersion of aggregated platelets
- inhibition of ADP-induced aggregation ([4]; same dose as tested with collagen): almost complete inhibition
- level of ATP after AP4 A infusion ([5]; an initial increment and a late increment): bimodal increments
- increase of blood AP4 A at the end of infusion ([5]; end of infusion): 125 fold of baseline
- concentration ([5]; end of infusion, 50 mg/kg): 6400 nM
- half-life in rabbit blood ([5]; in vivo and ex vivo): short half-life
- ATP, umol/l blood ([5]; in vivo, 0 min after infusion of AP4 A (50 mg/kg over 2 h)): 579.0 umol/l blood
- ATP, umol/l blood ([5]; in vivo, 10 min after infusion of AP4 A (50 mg/kg over 2 h)): 573.5 umol/l blood
- ATP, umol/l blood ([5]; in vivo, 20 min after infusion of AP4 A (50 mg/kg over 2 h)): 564.0 umol/l blood
- ATP, umol/l blood ([5]; in vivo, 40 min after infusion of AP4 A (50 mg/kg over 2 h)): 562.0 umol/l blood
- ATP, umol/l blood ([5]; in vivo, 60 min after infusion of AP4 A (50 mg/kg over 2 h)): 629.5 umol/l blood
- AP4 A, umol/l blood [5, 9]: 0.051 umol/l blood
- ATP, umol/l blood [5, 9]: 522.9 umol/l blood
- concentration at 0 h ([5]; rabbit, blood, iv, in vivo, 0 min after infusion (50 mg/kg over 2 h), read-out: AP4 A, umol/l blood): 6.41 µmol/L
- concentration at 10 min ([5]; rabbit, blood, iv, in vivo, 10 min after infusion (50 mg/kg over 2 h), read-out: AP4 A, umol/l blood): 0.043 µmol/L
- concentration at 20 min ([5]; rabbit, blood, iv, in vivo, 20 min after infusion (50 mg/kg over 2 h), read-out: AP4 A, umol/l blood): 0.045 µmol/L
- concentration at 40 min ([5]; rabbit, blood, iv, in vivo, 40 min after infusion (50 mg/kg over 2 h), read-out: AP4 A, umol/l blood): 0.05 µmol/L
- concentration at 1 h ([5]; rabbit, blood, iv, in vivo, 60 min after infusion (50 mg/kg over 2 h), read-out: AP4 A, umol/l blood): 0.042 µmol/L
- time to complete clearance after infusion ([5]; rabbits, after end of infusion): ≤ 10 min
- blood content of AP4 A prior to infusion ([5]; rabbits, prior to infusion): 51 nmol/1 blood
- blood content of AP4 A: fold lower than the level observed in man ([5]; rabbits, prior to infusion, versus man): 7.3 fold
- effect on collagen-induced aggregation after AP4 A infusion [6]: little effect
- aggregation of platelets induced by ADP after AP4 A infusion ([7]; 50 mg per kg over 2 hours, ADP 2×10^-5 M (FIG. 4)): diminished response to ADP-induced aggregation; also recorded: markedly blunted
- inhibition of ADP-induced platelet aggregation on administration to a mammal ([7]; rabbit, in vivo): markedly inhibit ADP-induced platelet aggregation
